pKd: −log10 of the molar value. Entries after “also recorded” stand apart in the source; their conditions may differ. Like-named read-outs stand apart in the source and are kept apart here.

The target in one experiment is cleaved HIV 89.6 gp140 (Human immunodeficiency virus type 1 group M subtype B, UniProt Q73372). Format: binding. The settings on record: no sCD4.
Experiment [1] deals with sCD4-gp140 (HIV 89.6 gp140). In words: SPR binding of HR-2 peptides to sCD4-gp140 complex. The method, then:
SPR biosensor measurements were determined on a BIACORE 3000 (BIACORE Inc., Uppsala, Sweden) instrument. […] Binding of proteins and peptides was monitored in real-time at 25° C. and with a continuous flow of PBS, pH 7.4 at […]. Analyte (proteins and peptides) were removed and the sensor surfaces were regenerated following each cycle of binding by single or duplicate […] of regeneration solution (10 mM glycine-HCl, pH 2.5 or 10 mM NaOH).
All analyses were performed using the non-linear fit method of O'Shannessy et al. (O'Shannessy et al, Anal. Biochem. 205:132–136 (1992)) and the BIAevaluation 3.0 software (BIACORE Inc). Rate and equilibrium constants were derived from curve fitting to the Langmuir equation for a simple bimolecular interaction (A+B=AB).
(§1) A blank chip served as an in-line reference surface for subtraction of non-specific binding and bulk responses.
(§2) Surface Plasmon Resonance Biosensor Measurements. SPR biosensor measurements were determined on a BIACORE 3000 (BIACORE Inc., Uppsala, Sweden) instrument. […] A blank in-line reference surface (activated and de-activated for amine coupling) was used to subtract non-specific or bulk responses. Binding of proteins and peptides (biotinylated or free DP178, T649Q26L, DP178-scrambled) was monitored in real-time at 25° C. with a continuous flow of PBS (150 mM NaCl, 0.005% surfactant p20), pH 7.4 at 10–30 μl/min. Analyte (proteins and peptides) were removed and the sensor surfaces were regenerated following each cycle of binding by single or duplicate 5–10 μl pulses of regeneration solution (10 mM glycine-HCl, pH 2.5 or 10 mM NaOH).

Experiment [2] deals with T8-gp140 (HIV 89.6 gp140). Particulars: SPR. How it is done: FIG. 14A. […] FIGS. 14B and 14C. […] After stabilization of gp140 capture, either the 19b (anti-gp120 V3) or 2F5 (anti-gp41) antibodies (300 μg/ml) were injected to assess the relative amounts of gp120 and gp41 on both surfaces. FIGS. 14D–14F.
as §1, §2

In experiment [3] the target is T8-gp120 (HIV 89.6 gp120) (Human immunodeficiency virus type 1 group M subtype B, UniProt Q73372). Type of experiment: binding. Particulars: SPR.
T8-gp120 (HIV 89.6 gp120), sequence (Q73372 32-508): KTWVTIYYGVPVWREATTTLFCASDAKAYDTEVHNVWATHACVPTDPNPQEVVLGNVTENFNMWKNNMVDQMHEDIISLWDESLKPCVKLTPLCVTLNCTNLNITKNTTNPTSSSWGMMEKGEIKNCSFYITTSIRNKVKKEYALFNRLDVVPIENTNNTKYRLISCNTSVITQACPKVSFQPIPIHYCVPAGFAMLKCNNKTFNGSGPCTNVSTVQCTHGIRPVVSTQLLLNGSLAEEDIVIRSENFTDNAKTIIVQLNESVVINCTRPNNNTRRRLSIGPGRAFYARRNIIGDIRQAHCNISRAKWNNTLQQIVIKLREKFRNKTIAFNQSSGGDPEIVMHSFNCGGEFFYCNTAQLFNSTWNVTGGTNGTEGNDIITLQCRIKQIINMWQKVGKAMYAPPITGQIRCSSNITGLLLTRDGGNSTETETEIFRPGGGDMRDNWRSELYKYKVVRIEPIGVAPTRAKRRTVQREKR
The next experiment addresses HIV-1 Env 89.6 gp120 (Human immunodeficiency virus type 1 group M subtype B, UniProt Q73372). As to the kind of experiment: biochemical. Type of experiment: binding, HIV-1 89.6.
A further experiment deals with BaL gp120. As to the kind of experiment: BIACORE capture assay: peptide binding to BaL gp120. Further details: species or system HIV-1 BaL. Particulars: CCR5-utilizing isolate. How it is done:
Rectangular bars represent the surface of the sensor chip on which sCD4 or mAbs A32 or T8 were covalently immobilized. Soluble gp120 proteins were first captured on each of these surfaces and then DP178 or sDP178 peptides were injected and their binding interactions were monitored. […] Based on their molecular size (1:27), 2000 RU of immobilized gp120 would bind 74 RU of DP178 peptide. […] Arrows point to start of injection of gp120 and DP178. […] In FIG. 27C, specific binding signal (solid) is shown after subtraction of non-specific signal (broken line). […] 50 μg/ml of DP178 peptide was flowed at 30 μl/min over each of these surfaces after 2000 RU of 89.6 gp120 was bound (FIG. 27D). In FIG. 27E, these same surfaces were also used to monitor binding of scrDP178 (50 μg/ml). […] (FIG. 27F) Binding of DP178 and DP107 peptides to A32-gp120 complex. […] Data are a representative experiment of 3 performed. […] 50 μg/ml of DP178 peptide was flowed at 30 μl/min over each of these surfaces after RU of BaL gp120 was bound (FIG. 27G). These same surfaces were also used to monitor binding of scrDP178 (50 μg/ml) (FIG. 27H).
Surface Plasmon Resonance Biosensor Measurements.

A further experiment concerns the target 89.6 gp120 (Human immunodeficiency virus type 1 group M subtype B, UniProt Q73372). Type of experiment: binding, HIV-1 89.6. An excerpt:
Biotinylated DP178 (FIG. 28A), scrDP178 (FIG. 28B) and scrDP107 (not shown) were attached to a SA-sensor chip through biotin-streptavidin interactions. 200–300 RU of each peptide was attached to individual flow cells of the SA chip. The scrDP107 surface was used as in-line reference subtraction of non-specific and bulk effect. All data shown here were derived after subtraction of signals from this reference surface. […] Data are a representative experiment of 3 performed.
The scrDP107 surface was used as a reference surface for subtracting bulk and non-specific binding. […] Soluble gp120 proteins, mabs or gp120 proteins pre-incubated with mabs were then injected at 20 μl/min for 2–3 min over each of the peptide-SA surface. Binding data was acquired following in-line reference subtraction of binding from the scrDP107 (HR-1) surface.
In these experiments (the “SA-chip assay”), biotinylated HR-2 peptides DP178 and scrDP178 were immobilized on adjacent flow cells of a streptavidin sensor chip (SA chip). […] The non-specific and bulk effect was measured over scrDP107 surface and this surface was used for automated in-line reference subtraction.

The target in the next experiment is HIV-1 89.6 gp120 (Human immunodeficiency virus type 1 group M subtype B, UniProt Q73372). Type of experiment: binding. The settings on record: absence of sCD4 or mAb A32, blot 29A lanes 3 and 4.
HIV-1 89.6 gp120, sequence (Q73372 32-508): as above
The target in another experiment is HIV 89.6 gp140 (Human immunodeficiency virus type 1 group M subtype B, UniProt Q73372). Type of experiment: binding. The settings on record: biotinylated peptide.
HIV 89.6 gp140, sequence (Q73372 32-681): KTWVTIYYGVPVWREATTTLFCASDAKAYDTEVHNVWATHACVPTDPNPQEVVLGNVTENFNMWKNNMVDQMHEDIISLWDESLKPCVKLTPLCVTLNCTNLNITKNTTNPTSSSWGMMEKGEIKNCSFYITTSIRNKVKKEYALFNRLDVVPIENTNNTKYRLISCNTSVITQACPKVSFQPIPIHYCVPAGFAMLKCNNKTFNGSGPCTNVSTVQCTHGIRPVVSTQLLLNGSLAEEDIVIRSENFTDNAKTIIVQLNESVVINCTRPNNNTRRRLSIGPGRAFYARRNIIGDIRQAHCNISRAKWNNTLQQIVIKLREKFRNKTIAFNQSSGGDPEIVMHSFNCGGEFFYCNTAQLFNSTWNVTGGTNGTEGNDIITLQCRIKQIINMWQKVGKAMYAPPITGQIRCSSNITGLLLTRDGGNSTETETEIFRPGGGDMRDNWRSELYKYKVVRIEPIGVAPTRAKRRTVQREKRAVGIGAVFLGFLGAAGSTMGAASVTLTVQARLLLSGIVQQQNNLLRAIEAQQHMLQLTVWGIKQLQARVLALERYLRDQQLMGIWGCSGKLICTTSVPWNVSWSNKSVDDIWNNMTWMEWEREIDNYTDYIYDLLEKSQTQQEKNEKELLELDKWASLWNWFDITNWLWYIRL
The mark [4] stands for this setting: A32-induced gp120, two-component dissociation.

89.6 gp120, sequence (Q73372 32-508): as the sequence (Q73372 32-508) above
HIV-1 Env 89.6 gp120, sequence (Q73372 32-508): as above
cleaved HIV 89.6 gp140, sequence (Q73372 32-681): as the sequence (Q73372 32-681) above

On to enfuvirtide, for which the results for the “Rm (maximal binding at equilibrium)” value (at cleaved HIV 89.6 gp140; in experiment [1] (with sCD4)) were 35 RU and 320 RU, respectively. For the same substance, the “binding to cleaved gp140 (in words)” value at cleaved HIV 89.6 gp140 is given as “Low level binding”. Further, the “binding to sCD4-gp140 surface (in words)” value in [1] (SPR) was “much higher binding; also recorded: bound specifically”. Also, the pKd is 5.77 in experiment [1] (Scatchard plot, read-out: Keq (equilibrium binding constant)); 6.15 in [1] (sCD4-gp140 complexes, without CCR5-D1, read-out: Kd); 6.09 on HIV-1 Env 89.6 gp120. In experiment [1] (cleaved gp140 after sCD4), the “kd (off-rate)” value stood at 0.0056 s⁻¹. Further, the “Keq stronger than for recombinant gp41” value in experiment [1] (sCD4-gp140 vs gp41) came out at 10 fold. Further, in experiment [1] (with vs without sCD4), the “increase of Rm by soluble CD4” value is listed as about 10 fold. In addition, the “binding to T8-gp140 surface (in words)” value in experiment [2] is recorded as “near background binding”. In [3], the “binding to gp120 on T8 mab surface (in words)” value was “neither HR-2 peptide bound”. In addition, at HIV-1 Env 89.6 gp120 (biphasic binding), the “faster component of the dissociation phase” value is 0.023 s⁻¹. Also, on HIV-1 Env 89.6 gp120 (biphasic binding, predominant), the “slower component of the dissociation phase” value came to 0.001 s⁻¹. Besides, the “binding to gp120 bound to CD4 or A32 (in words)” value on HIV-1 Env 89.6 gp120 (peptide 50 μg/ml) is reported as “specific induction of DP178 binding; also recorded: Marked induction”. Also, the “binding to gp120 bound to mAb T8 (in words)” value on HIV-1 Env 89.6 gp120 (peptide 50 μg/ml) is given as “no differences were observed”. In the experiment on BaL gp120, the “binding to BaL gp120 complexed with A32, CD4 or T8 (in words)” value is “neither DP178 nor scrDP178 bound”. Also, the “binding higher than expected due to mass effect only” value at 89.6 gp120 (+A32) is on record as 3 fold. In addition, the faster off-rate on 89.6 gp120 (setting [4]) is 0.020 s⁻¹. The slower off-rate on 89.6 gp120 (setting [4]) was determined as 0.0016 s⁻¹. Besides, on 89.6 gp120 (gp120 pre-incubated with A32 (+A32)), the “binding signal of A32-gp120 over peptide surface” value is recorded as about 400 RU. The “band density of precipitated gp120” value on HIV-1 89.6 gp120 worked out at 1.0 ODunits/mm^2. At HIV 89.6 gp140, the “immunoprecipitation of gp41 and gp140 (in words)” value was “constitutively immunoprecipitated”.

For the origin of these results see patent publication US7033593B2, “Immunogen comprising an HIV envelope protein, a ligand and H2 peptide” (priority 2000, dated 2006).
